Test results: US20230407243A1, “GENETIC PLATFORM TO INVESTIGATE THE FUNCTIONS OF BACTERIAL DRUG EFFLUX PUMPS” (priority 2022, published 2023)
Where two headings read alike, the source gives them in different places.

Assays:
Format in all cases: cell-based, Escherichia coli
[1] = system: E. coli EKO-35; assay: microbe, parasite or virus in culture; details: for Fold change of MICs: EKO-35 compared to EKO-35 (reference); for MIC: Escherichia coli, EKO35, technical duplicate
Outline: (§1)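 Growth inhibition was scored by OD600, with readings taken before incubation subtracted from those after. Cells were grown in MHB II at 37 °C for 18 h with aeration, against duplicate 2-fold compound series and DMSO-only wells. Inoculum: PBS suspension at OD600 ~1.0 diluted 1/2000.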

[2] = system: E. coli ΔtolC; assay: microbe, parasite or virus in culture; details: for MIC: Escherichia coli, 18 h, read-out: Minimum Inhibitory Concentration, ΔtolC; for Minimum inhibitory concentration (MIC), ΔtolC: Table 10, without pore, technical duplicate
Outline: as §1

[3] = system: wild-type E. coli K-12 str. BW25113; assay: microbe, parasite or virus in culture; details: Escherichia coli, BW25113, technical duplicate
Outline: as §1

[4] = system: EKO-35 araC::acrBD408A; assay: MIC susceptibility profiling, efflux platform; details: for Fold change of MICs: EKO-35 araC::acrBD408A compared to EKO-35; for MIC: Escherichia coli, Table 13B, non-porinated, technical duplicate, read-out: Minimum Inhibitory Concentration, EKO-35 araC::acrBD408A
Outline: as §1

[5] = system: EKO-35 araC::acrEF; assay: MIC susceptibility profiling, efflux platform; details: for Fold change of MICs: EKO-35 araC::acrEF compared to EKO-35
Outline: as §1

[6] = system: EKO-35 araC::mdtBC; assay: MIC susceptibility profiling, efflux platform; details: for Fold change of MICs: EKO-35 araC::mdtBC compared to EKO-35; for MIC: Escherichia coli, Table 13B, non-porinated, technical duplicate, read-out: Minimum Inhibitory Concentration, EKO-35 araC::mdtBC
Outline: as §1

[7] = system: wild-type (WT) K-12-Pore; assay: microbe, parasite or virus in culture; details: Escherichia coli, technical duplicate
Outline: (§2)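 MIC values come from background-corrected OD600 readings (pre-incubation OD subtracted) after 18 h at 37 °C and 900 rpm in MHB II. Compounds were tested in duplicate as 2-fold dilutions. The inoculum came from 18 h LB cultures adjusted to OD600 ~1.0 and diluted 1/2000, and the pore-bearing strains were vancomycin-checked beforehand.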

[8] = system: ΔtolC-Pore; assay: microbe, parasite or virus in culture; details: for MIC: Escherichia coli, 18 h, read-out: Minimum inhibitory concentration, ΔtolC-Pore; for Minimum inhibitory concentration (MIC), Pore ΔtolC: Table 10, with pore, technical duplicate
Outline: as §2

[9] = system: EKO-35-Pore; assay: MIC susceptibility profiling, porinated strain; details: for Fold changes of MICs: EKO-35-Pore compared to EKO-35-Pore (reference); for MIC: Escherichia coli, technical duplicate
Outline: as §2

[10] = system: EKO-35 araC::acrB Pore; assay: MIC susceptibility profiling, porinated efflux platform; details: for Fold changes of MICs: EKO-35 araC::acr-B Pore compared to EKO-35-Pore; for MIC: Escherichia coli, Table 14A, porinated, technical duplicate, read-out: Minimum inhibitory concentration, EKO-35 araC::acrB Pore
Outline: as §2

[11] = system: EKO-35 araC::acrBD408A Pore; assay: as above; details: for Fold changes of MICs: EKO-35 araC::acrBD408A Pore compared to EKO-35-Pore; for MIC: Escherichia coli, EKO-35 araC::acrBD408A Pore, technical duplicate, read-out: Minimum inhibitory concentration
Outline: as §2

[12] = system: EKO-35 araC::acrD Pore; assay: as above; details: for Fold changes of MICs: EKO-35 araC::acrD Pore compared to EKO-35-Pore; for MIC: Escherichia coli, Table 14A, porinated, technical duplicate, read-out: Minimum inhibitory concentration, EKO-35 araC::acrD Pore
Outline: as §2

[13] = system: EKO-35 araC::acrEF Pore; assay: as above; details: for Fold changes of MICs: EKO-35 araC::acrEF Pore compared to EKO-35-Pore; for MIC: Escherichia coli, Table 14A, porinated, technical duplicate, read-out: Minimum inhibitory concentration, EKO-35 araC::acrEF Pore
Outline: as §2

[14] = system: EKO-35 araC::emrAB Pore; assay: as above; details: for Fold changes of MICs: EKO-35 araC::emrAB Pore compared to EKO-35-Pore; for MIC: Escherichia coli, EKO-35 araC::emrAB Pore, technical duplicate, read-out: Minimum inhibitory concentration
Outline: as §2

[15] = system: EKO-35 araC::emrKY Pore; assay: as above; details: for Fold changes of MICs: EKO-35 araC::emrKY Pore compared to EKO-35-Pore; for MIC: Escherichia coli, EKO-35 araC::emrKY Pore, technical duplicate, read-out: Minimum inhibitory concentration
Outline: as §2

[16] = system: EKO-35 araC::macAB Pore; assay: as above; details: for Fold changes of MICs: EKO-35 araC::macAB Pore compared to EKO-35-Pore; for MIC: Escherichia coli, EKO-35 araC::macAB Pore, technical duplicate, read-out: Minimum inhibitory concentration
Outline: as §2

[17] = system: EKO-35 araC::mdtBC Pore; assay: as above; details: for Fold changes of MICs: EKO-35 araC::mdtBC Pore compared to EKO-35-Pore; for MIC: Escherichia coli, EKO-35 araC::mdtBC Pore, technical duplicate, read-out: Minimum inhibitory concentration
Outline: as §2

[18] = system: EKO-35 araC::mdtEF Pore; assay: as above; details: for Fold changes of MICs: EKO-35 araC::mdtEF Pore compared to EKO-35-Pore; for MIC: Escherichia coli, Table 14A, porinated, technical duplicate, read-out: Minimum inhibitory concentration, EKO-35 araC::mdtEF Pore
Outline: as §2

[19] = system: EKO-35 araC::mexCD Pore; assay: as above; details: for Fold changes of MICs: EKO-35 araC::mexCD Pore compared to EKO-35-Pore; for MIC: Escherichia coli, EKO-35 araC::mexCD Pore, technical duplicate, read-out: Minimum inhibitory concentration
Outline: as §2

[20] = Table 10, without pore, read-out: Minimum inhibitory concentration (MIC), EKO-35
[21] = Table 13A, non-porinated, read-out: Minimum Inhibitory Concentration, EKO-35
[22] = Table 10, without pore, read-out: Minimum inhibitory concentration (MIC), K-12
[23] = Table 13A, non-porinated, read-out: Minimum Inhibitory Concentration, K-12
[24] = Table 10, with pore, read-out: Minimum inhibitory concentration (MIC), Pore K-12
[25] = Table 14A, porinated, read-out: Minimum inhibitory concentration, K-12 (WT)-Pore
[26] = Table 10, with pore, read-out: Minimum inhibitory concentration (MIC), Pore EKO-35
[27] = Table 14A, porinated, read-out: Minimum inhibitory concentration, EKO-35-Pore

SMILES | Fold change of MICs [1] | MIC [1, 20] | MIC [1, 21] | MIC [2] | Minimum inhibitory concentration (MIC), ΔtolC [2] | MIC [3, 22] | MIC [3, 23] | Fold change of MICs [4] | MIC [4] | Fold change of MICs [5] | Fold change of MICs [6] | MIC [6] | MIC [7, 24] | MIC [7, 25] | MIC [8] | Minimum inhibitory concentration (MIC), Pore ΔtolC [8] | Fold changes of MICs [9] | MIC [9, 26] | MIC [9, 27] | Fold changes of MICs [10] | further results
[H]/N=C(\N/C(=N/[H])NCCCCCCNC(=N)NC(=N)Nc1ccc(Cl)cc1)Nc1ccc(Cl)cc1 [Chlorhexidine] | 1 fold | 0.391 µg/mL | 0.391 µg/mL | 0.391 µg/mL | 0.391 µg/mL | 0.781 µg/mL | 0.781 µg/mL | 1 fold | 0.391 µg/mL | 1 fold | 1 fold | 0.391 µg/mL | 0.781 µg/mL | 0.781 µg/mL | 0.391 µg/mL | 0.391 µg/mL | 1 fold | 0.391 µg/mL | 0.391 µg/mL | 1 fold | MIC ([5]; Escherichia coli, Table 13A, non-porinated, technical duplicate, read-out: Minimum Inhibitory Concentration, EKO-35 araC::acrEF): 0.391 µg/mL; MIC [10]: 0.391 µg/mL; Fold changes of MICs [11]: 1 fold; MIC [11]: 0.391 µg/mL; Fold changes of MICs [12]: 1 fold; MIC [12]: 0.391 µg/mL; Fold changes of MICs [13]: 1 fold; MIC [13]: 0.391 µg/mL; Fold changes of MICs [14]: 1 fold; MIC [14]: 0.391 µg/mL; Fold changes of MICs [15]: 1 fold; MIC [15]: 0.391 µg/mL; Fold changes of MICs [16]: 1 fold; MIC [16]: 0.391 µg/mL; Fold changes of MICs [17]: 1 fold; MIC [17]: 0.391 µg/mL; Fold changes of MICs [18]: 1 fold; MIC [18]: 0.391 µg/mL; Fold changes of MICs [19]: 1 fold; MIC [19]: 0.391 µg/mL
CCn1cc(C(=O)O)c(=O)c2ccc(C)nc21 [nalidixic acid] | 1 fold | 1.25 µg/mL | 1.25 µg/mL | 1.25 µg/mL | 1.25 µg/mL | 10 µg/mL | 10 µg/mL | 1 fold | 1.25 µg/mL | 4 fold | 1 fold | 1.25 µg/mL | 5 µg/mL | 5 µg/mL | 1.25 µg/mL | 1.25 µg/mL | 1 fold | 1.25 µg/mL | 1.25 µg/mL | 8 fold | MIC [10]: 10 µg/mL; Fold changes of MICs [11]: 1 fold; MIC [11]: 1.25 µg/mL; Fold changes of MICs [12]: 1 fold; MIC [12]: 1.25 µg/mL; efflux pump-mediated resistance vs EKO-35-Pore ([13]; AcrEF with the pore): impacted the ability of AcrEF to confer resistance; Fold changes of MICs [13]: 2 fold; MIC [13]: 2.5 µg/mL; Fold changes of MICs [14]: 8 fold; MIC [14]: 10 µg/mL; Fold changes of MICs [15]: 1 fold; MIC [15]: 1.25 µg/mL; Fold changes of MICs [16]: 1 fold; MIC [16]: 1.25 µg/mL; Fold changes of MICs [17]: 1 fold; MIC [17]: 1.25 µg/mL; Fold changes of MICs [18]: 1 fold; MIC [18]: 1.25 µg/mL; Fold changes of MICs [19]: 2 fold; MIC [19]: 2.5 µg/mL
